Patent US20250041214A1, “INHALABLE OR INGESTIBLE LACTIC ACID COMPOSITIONS FOR THE TREATMENT OF CHRONIC LUNG DISEASE” (Alveolus Bio, Inc., priority 2021, published 2025)
“Also recorded” adds a separate entry of the source.

Experiments:
[1] = test system: Matrix Metalloproteinase-9 (MMP-9) mRNA; assay: MMP-9 mRNA in E. coli-treated HBE cells (dysbiosis model of lung epithelial cells), qRT-PCR; assay type: cell-based, human; details: 4 hours at 37° C.
Method: In FIG. 2, human primary epithelial (HBE) cells were seeded on a 6 well plate with 4×10^5 cells in each well. 16 hours later, the medium was changed to fresh DULBECCO'S Modified Eagle Medium/Nutrient Mixture F-12 (DMEM/F12) without antibiotic, and E. coli was added to the cells at a final concentration of 5.0×10^7 E. coli cells/ml. L(+) Lactic acid was added together with E. coli at a final lactic acid concentration of 5 mM, 10 mM, or 20 mM. The cells were incubated at 37° C. for 4 hours and then harvested with QIAZOL reagent. RNA was extracted according to the QIAZOL protocol. The level of Matrix Metalloproteinase-9 (MMP-9) mRNA was measured by quantitative real-time PCR (qRT-PCR). In FIG. 5, human bronchial epithelial (HBE) cells were seeded on a 6 well plate with 4×10^5 cells in each well. 16 hours later, the medium was changed to fresh DULBECCO'S Modified Eagle Medium/Nutrient Mixture F-12 (DMEM/F12) without antibiotic, and E. coli was added to the cells at a final concentration of 5.0×10^7 E. coli cells/ml. D(−) Lactic acid was added together with E. coli at a final lactic acid concentration of 0.25 ug/mL, 0.5 ug/mL, or 2 μg/mL. The cells were incubated at 37° C. for 4 hours and then harvested with QIAZOL reagent. RNA was extracted according to the QIAZOL protocol. The level of Matrix Metalloproteinase-9 (MMP-9) mRNA was measured by quantitative real-time PCR (qRT-PCR).

[2] = test system: Matrix Metalloproteinase-9 (MMP-9) mRNA; assay: MMP-9 mRNA in Caco-2 intestinal epithelial cells inoculated with E. coli, qRT-PCR; assay type: cell-based, human; details: Caco-2 cells inoculated with E. coli; L(+) lactic acid 1.5 mM, 3 mM or 6 mM; 4 hours at 37° C.
Method: In FIG. 3, human intestinal epithelial cells (IECs) from the Caco-2 cell line were seeded on a 6 well plate with 4×10^5 cells in each well. 16 hours later, the medium was changed to fresh DULBECCO'S Modified Eagle Medium/Nutrient Mixture F-12 (DMEM/F12) without antibiotic, and E. coli was added to the cells at a final concentration of 5.0×10^7 E. coli cells/ml. L(+) Lactic acid was added together with E. coli at a final lactic acid concentration of 1.5 mM, 3 mM, or 6 mM. The cells were incubated at 37° C. for 4 hours and then harvested with QIAZOL reagent. RNA was extracted according to the QIAZOL protocol. The level of Matrix Metalloproteinase-9 (MMP-9) mRNA was measured by quantitative real-time PCR (qRT-PCR).

MMP-9 mRNA = MMP-9 mRNA in A549 NSCLC adenocarcinoma cells inoculated with E. coli, real-time qPCR; assay type: cell-based; details: 0.25 μg to 4 ug L-LA, 4 hours at 37° C.
Method: In FIG. 4, 2×10^5 A549 cells were seeded in 500 μL growth medium per each well of a 24-well plate. Cells were treated with: (1) 2 uL PBS (control), (2) 5×10^8 E. coli cells (E. coli), (3) or 5×10*8 cells E. coli with 0.25 ug, 0.5 ug, 1 ug, 2 ug, or 4 ug L-lactic acid. The cells were incubated for 4 hours at 37° C. Cells were harvested, RNA was extracted with an RNA extraction kit, the concentration of total RNA was measured, cDNA was obtained using a High-Capacity cDNA Reverse Transcription Kit, and then a TAQMAN real-time qPCR protocol was performed on the cDNA.

[3] = pure water; cited from earlier work

C[C@@H](O)C(=O)O [D-lactic acid]
MMP-9 mRNA levels ([1]; HBE cells inoculated with E. coli, 0.25 μg to 2 ug D-LA): no statistical difference

C[C@H](O)C(=O)O [L-lactic acid]
MMP-9 mRNA levels [2]: decreased
MMP-9 mRNA levels (MMP-9 mRNA): decreased
MMP-9 mRNA levels ([1]; HBE cells treated with E. coli, L(+) lactic acid 5 mM, 10 mM or 20 mM): MMP-9 reduction; also recorded: decreased

Polyoxyethylene (20) sorbitan monooleate [polysorbate 80]
critical micelle concentration [3]: 0.012 mM
